This is an account of results in publication PMC8550792, “Evolution of kinase polypharmacology across HSP90 drug discovery” (Cell Chemical Biology, 2021).

Structures are written as SMILES.

Common to all, as to experiment: biochemical
What all share (assay type): biochemical

Test [1] addresses T1, 382 unique human kinases (Homo sapiens, UniProt Q13554).
T1 construct: purchased Reaction Biology (HotSpot contract assay)
The settings on record: kinase CAMK2b, compound 10 uM; for remaining activity at 10 µM: read-out: % Enzyme Activity (relative to DMSO controls).

In test [2] the target is T2, 382 unique human kinases (Homo sapiens, UniProt P49759).
T2 construct: purchased Reaction Biology (HotSpot contract assay)
T2 sequence (P49759 whole entry): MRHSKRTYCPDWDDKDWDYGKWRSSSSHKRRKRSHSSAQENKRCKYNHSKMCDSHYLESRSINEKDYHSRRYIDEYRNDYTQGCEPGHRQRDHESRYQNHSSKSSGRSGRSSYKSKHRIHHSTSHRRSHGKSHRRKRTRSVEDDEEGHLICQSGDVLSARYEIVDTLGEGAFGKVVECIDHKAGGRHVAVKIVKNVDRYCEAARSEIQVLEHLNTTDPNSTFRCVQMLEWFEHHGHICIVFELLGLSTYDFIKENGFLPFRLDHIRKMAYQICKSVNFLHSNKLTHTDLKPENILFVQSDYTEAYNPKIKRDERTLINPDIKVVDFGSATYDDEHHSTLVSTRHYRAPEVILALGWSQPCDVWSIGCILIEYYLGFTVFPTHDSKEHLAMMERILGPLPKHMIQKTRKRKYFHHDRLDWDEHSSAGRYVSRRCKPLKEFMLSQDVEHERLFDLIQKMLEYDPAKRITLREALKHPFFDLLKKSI
Particulars: CLK1, 10 uM; for remaining activity at 10 µM: read-out: % Enzyme Activity (relative to DMSO controls).

Test [3] has as its target T3, 382 unique human kinases (Homo sapiens, UniProt P08581, Y1235D).
T3 construct: purchased Reaction Biology (HotSpot contract assay)
Particulars: c-MET (Y1235D), 10 uM; for remaining activity at 10 µM: read-out: % Enzyme Activity (relative to DMSO controls).

The target of test [4] is T4, 382 unique human kinases (Homo sapiens, UniProt P53355).
T4 construct: purchased Reaction Biology (HotSpot contract assay)
T4 sequence (P53355 whole entry): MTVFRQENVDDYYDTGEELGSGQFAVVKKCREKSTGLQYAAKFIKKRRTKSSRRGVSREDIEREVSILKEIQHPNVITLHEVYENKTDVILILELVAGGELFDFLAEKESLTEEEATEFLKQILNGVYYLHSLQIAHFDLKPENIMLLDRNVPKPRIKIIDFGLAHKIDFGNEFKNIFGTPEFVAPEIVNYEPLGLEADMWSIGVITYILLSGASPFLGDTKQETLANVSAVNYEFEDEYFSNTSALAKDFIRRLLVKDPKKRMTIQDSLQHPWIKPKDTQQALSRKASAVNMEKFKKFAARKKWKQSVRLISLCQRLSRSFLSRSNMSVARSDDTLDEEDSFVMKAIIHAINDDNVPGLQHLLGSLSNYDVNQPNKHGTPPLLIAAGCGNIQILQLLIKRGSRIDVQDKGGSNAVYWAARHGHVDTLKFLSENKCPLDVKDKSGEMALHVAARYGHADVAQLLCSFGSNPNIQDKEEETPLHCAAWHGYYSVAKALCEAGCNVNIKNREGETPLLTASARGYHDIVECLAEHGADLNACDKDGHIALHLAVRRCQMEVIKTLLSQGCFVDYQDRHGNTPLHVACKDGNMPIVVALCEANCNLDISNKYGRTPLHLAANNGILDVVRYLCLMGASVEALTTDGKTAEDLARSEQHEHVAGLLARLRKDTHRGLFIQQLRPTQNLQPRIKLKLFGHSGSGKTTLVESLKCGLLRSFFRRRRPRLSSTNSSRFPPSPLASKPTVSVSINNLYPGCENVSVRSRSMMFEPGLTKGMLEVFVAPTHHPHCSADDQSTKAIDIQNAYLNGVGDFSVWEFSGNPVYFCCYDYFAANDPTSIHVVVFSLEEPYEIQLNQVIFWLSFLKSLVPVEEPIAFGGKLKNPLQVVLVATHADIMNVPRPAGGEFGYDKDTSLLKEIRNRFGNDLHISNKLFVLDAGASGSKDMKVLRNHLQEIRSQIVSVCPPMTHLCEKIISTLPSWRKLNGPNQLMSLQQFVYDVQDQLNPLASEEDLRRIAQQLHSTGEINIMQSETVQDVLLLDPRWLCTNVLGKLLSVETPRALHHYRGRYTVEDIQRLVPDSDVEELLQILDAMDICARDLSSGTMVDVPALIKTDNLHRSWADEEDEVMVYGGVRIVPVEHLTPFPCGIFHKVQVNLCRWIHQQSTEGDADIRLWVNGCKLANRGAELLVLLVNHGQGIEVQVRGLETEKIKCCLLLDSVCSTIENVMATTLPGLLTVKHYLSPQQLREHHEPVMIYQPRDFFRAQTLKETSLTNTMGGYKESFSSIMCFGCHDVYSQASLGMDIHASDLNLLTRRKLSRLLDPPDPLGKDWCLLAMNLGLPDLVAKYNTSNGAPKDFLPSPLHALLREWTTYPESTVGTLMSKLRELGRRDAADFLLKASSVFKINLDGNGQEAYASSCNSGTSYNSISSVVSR
Particulars: kinase DAPK1, compound 10 uM; for remaining activity at 10 µM: read-out: % Enzyme Activity (relative to DMSO controls).

The target of test [5] is T5, 382 unique human kinases (Homo sapiens, UniProt Q9Y2U5).
T5 construct: purchased Reaction Biology (HotSpot contract assay)
T5 sequence (Q9Y2U5 1-619): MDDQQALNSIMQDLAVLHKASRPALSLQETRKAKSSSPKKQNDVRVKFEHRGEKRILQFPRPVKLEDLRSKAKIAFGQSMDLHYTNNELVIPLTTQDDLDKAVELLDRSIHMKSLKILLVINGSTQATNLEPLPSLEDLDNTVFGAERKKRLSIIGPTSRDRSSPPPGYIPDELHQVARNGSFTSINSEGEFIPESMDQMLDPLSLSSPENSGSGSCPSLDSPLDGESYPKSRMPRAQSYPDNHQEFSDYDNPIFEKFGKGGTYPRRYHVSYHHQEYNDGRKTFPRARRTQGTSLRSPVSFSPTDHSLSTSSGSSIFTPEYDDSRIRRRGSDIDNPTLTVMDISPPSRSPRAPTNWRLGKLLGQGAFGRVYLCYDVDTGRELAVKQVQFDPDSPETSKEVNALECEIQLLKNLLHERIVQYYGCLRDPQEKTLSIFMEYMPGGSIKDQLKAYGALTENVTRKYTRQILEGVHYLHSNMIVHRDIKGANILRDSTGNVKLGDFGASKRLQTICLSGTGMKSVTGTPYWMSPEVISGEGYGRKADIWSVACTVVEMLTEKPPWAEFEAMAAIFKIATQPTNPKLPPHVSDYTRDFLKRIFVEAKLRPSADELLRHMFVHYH
The settings on record: MEKK2, compound at 10 uM, duplicate values; for remaining activity at 10 µM: read-out: % Enzyme Activity (relative to DMSO controls).

The target of test [6] is T6, 382 unique human kinases (Homo sapiens, UniProt Q8IVH8).
T6 construct: purchased Reaction Biology (HotSpot contract assay)
T6 sequence (Q8IVH8 1-894): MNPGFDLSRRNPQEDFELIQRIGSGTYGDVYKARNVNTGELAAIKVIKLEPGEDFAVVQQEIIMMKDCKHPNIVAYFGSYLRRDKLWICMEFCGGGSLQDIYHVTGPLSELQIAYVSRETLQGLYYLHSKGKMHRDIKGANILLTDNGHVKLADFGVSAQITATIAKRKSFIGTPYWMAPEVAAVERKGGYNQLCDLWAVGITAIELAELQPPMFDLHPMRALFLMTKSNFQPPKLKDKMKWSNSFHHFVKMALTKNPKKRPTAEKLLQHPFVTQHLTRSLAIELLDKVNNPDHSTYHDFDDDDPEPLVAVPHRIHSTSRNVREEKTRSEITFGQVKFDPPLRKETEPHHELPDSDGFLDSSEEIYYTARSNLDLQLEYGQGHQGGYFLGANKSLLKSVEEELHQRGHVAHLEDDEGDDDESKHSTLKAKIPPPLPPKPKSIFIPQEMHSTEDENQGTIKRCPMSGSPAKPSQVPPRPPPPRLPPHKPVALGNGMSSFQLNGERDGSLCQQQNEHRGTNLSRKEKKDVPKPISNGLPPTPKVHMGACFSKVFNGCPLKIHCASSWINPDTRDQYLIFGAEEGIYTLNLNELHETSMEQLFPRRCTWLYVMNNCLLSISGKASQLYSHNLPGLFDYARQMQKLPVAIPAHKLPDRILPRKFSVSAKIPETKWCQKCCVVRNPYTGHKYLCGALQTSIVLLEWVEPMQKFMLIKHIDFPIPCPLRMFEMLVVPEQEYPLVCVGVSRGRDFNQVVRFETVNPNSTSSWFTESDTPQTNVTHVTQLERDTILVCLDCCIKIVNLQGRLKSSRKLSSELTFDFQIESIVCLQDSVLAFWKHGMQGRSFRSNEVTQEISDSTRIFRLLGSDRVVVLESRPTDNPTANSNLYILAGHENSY
The settings on record: kinase GLK/MAP4K3, compound 10 uM; for remaining activity at 10 µM: read-out: % Enzyme Activity (relative to DMSO controls).

The target of test [7] is T7, 382 unique human kinases (Homo sapiens, UniProt Q16513).
T7 construct: purchased Reaction Biology (HotSpot contract assay)
T7 sequence (Q16513 whole entry): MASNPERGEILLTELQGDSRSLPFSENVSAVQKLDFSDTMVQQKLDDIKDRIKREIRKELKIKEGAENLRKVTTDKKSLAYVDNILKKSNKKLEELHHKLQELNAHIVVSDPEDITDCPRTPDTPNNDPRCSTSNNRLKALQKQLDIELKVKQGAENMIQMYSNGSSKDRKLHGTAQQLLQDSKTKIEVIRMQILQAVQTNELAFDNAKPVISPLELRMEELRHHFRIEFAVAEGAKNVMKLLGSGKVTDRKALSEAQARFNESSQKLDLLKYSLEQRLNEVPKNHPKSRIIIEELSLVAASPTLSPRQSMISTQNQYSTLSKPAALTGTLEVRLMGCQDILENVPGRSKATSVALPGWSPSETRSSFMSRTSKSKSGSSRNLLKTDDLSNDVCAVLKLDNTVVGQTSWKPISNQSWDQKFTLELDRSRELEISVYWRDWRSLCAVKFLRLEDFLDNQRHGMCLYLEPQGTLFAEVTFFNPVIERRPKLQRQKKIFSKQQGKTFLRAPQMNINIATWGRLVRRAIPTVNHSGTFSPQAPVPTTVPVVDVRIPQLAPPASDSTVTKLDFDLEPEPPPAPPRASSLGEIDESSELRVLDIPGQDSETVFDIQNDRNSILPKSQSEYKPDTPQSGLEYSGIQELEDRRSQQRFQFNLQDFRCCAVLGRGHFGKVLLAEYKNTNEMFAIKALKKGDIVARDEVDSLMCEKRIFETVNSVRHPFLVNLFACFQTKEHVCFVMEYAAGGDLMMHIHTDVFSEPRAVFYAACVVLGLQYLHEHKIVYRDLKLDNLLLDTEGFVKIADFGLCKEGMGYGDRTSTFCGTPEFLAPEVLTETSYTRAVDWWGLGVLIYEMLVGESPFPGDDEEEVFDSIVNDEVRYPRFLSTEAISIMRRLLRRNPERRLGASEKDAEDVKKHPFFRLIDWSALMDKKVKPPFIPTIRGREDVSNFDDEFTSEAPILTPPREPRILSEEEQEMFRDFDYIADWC
Particulars: PKN2/PRK2, 10 uM; for remaining activity at 10 µM: read-out: % Enzyme Activity (relative to DMSO controls).

In test [8] the target is T8, 382 unique human kinases (Homo sapiens, UniProt P00533, G719S).
T8 construct: purchased Reaction Biology (HotSpot contract assay)
Particulars: EGFR (G719S), 10 uM; for remaining activity at 10 µM: read-out: % Enzyme Activity (relative to DMSO controls).

Test [9] addresses T9, 382 unique human kinases (Homo sapiens, UniProt Q14680, T460M).
T9 construct: purchased Reaction Biology (HotSpot contract assay)
The settings on record: MELK (T460M), [ATP] 20 µM, compound 10 uM; for remaining activity at 10 µM: read-out: % Enzyme Activity (relative to DMSO controls).

The target in test [10] is T10, 382 unique human kinases (Homo sapiens, UniProt Q9Y243).
T10 construct: purchased Reaction Biology (HotSpot contract assay)
T10 sequence (Q9Y243 whole entry): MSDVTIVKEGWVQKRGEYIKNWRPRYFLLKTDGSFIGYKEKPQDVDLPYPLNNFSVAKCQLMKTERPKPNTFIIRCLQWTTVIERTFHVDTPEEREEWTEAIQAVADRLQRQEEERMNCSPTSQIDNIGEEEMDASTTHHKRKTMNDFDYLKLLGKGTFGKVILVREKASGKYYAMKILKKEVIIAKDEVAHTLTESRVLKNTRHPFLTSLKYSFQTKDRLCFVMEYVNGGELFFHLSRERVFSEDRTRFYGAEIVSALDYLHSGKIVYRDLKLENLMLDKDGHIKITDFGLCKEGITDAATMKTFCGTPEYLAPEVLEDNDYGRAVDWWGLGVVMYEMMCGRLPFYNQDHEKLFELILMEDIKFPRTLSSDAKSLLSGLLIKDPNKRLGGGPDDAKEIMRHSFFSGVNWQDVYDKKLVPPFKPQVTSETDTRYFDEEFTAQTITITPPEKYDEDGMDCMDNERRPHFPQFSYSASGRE
The settings on record: AKT3, 10 uM; for remaining activity at 10 µM: read-out: % Enzyme Activity (relative to DMSO controls).

Test [11] deals with T11, 382 unique human kinases (Homo sapiens, UniProt P22455, V550E).
T11 construct: purchased Reaction Biology (HotSpot contract assay)
T11 sequence (P22455 22-802 V550E): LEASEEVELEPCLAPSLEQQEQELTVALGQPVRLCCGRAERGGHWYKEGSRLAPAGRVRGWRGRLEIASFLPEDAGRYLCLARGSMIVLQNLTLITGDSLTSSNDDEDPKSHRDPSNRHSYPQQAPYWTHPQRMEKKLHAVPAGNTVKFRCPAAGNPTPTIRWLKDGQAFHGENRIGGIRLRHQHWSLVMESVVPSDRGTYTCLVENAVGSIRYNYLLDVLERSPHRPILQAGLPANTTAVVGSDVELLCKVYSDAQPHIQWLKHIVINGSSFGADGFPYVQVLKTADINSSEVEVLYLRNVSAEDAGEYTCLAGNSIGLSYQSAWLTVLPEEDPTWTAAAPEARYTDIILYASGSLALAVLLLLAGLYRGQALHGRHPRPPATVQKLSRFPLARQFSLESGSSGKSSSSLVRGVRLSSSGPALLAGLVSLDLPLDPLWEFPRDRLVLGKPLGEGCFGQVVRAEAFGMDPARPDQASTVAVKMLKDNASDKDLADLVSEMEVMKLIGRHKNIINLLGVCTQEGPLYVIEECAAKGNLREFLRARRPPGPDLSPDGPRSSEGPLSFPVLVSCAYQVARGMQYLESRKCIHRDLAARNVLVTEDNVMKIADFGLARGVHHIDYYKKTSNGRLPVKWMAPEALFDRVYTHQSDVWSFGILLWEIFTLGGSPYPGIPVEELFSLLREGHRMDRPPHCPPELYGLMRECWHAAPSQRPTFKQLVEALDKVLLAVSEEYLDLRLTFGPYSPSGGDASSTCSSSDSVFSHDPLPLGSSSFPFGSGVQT
The settings on record: FGFR4 (V550E), 10 uM; for remaining activity at 10 µM: read-out: % Enzyme Activity (relative to DMSO controls).

For test [12], the target named is T12, 382 unique human kinases (Homo sapiens, UniProt P08581, P991S).
T12 construct: purchased Reaction Biology (HotSpot contract assay)
Particulars: c-MET (P991S), 10 uM; for remaining activity at 10 µM: read-out: % Enzyme Activity (relative to DMSO controls).

T9 sequence (Q14680 whole entry T460M): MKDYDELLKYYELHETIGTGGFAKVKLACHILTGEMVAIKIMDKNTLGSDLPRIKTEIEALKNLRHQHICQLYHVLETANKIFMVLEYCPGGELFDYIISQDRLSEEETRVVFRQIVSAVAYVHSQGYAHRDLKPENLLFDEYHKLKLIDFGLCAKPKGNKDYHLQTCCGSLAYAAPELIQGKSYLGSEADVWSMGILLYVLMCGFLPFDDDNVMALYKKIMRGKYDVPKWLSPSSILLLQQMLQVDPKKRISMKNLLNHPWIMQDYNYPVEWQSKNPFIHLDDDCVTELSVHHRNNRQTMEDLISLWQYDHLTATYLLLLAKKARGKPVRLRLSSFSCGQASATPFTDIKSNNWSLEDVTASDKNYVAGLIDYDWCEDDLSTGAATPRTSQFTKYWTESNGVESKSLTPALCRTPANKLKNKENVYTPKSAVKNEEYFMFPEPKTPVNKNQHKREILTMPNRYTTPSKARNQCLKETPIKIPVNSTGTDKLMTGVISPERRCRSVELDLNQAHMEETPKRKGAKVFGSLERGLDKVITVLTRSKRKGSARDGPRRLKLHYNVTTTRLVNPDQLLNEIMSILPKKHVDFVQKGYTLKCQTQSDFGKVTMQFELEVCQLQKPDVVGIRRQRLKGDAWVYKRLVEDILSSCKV

With `CC(C)c1cc(-c2n[nH]c(=O)n2-c2ccc3c(ccn3C)c2)c(O)cc1O` [Ganetespib (STA9090)], the remaining activity at 10 µM came to 79.1% in test [1]; 69.1% in [2]; 102% in test [3]; 83.3% in test [4]; 109% in [5]; 89.8% in test [6].

Turning to `CC(C)c1cc(-c2n[nH]c(=O)n2-c2ccc3c(ccn3C)c2)c(O)cc1O` [Ganetespib], the remaining activity at 10 µM in test [7] was found to be 95.7%; in test [8] it was 99.7%; in test [9], 43.6%; in test [10], 92.1%; in test [11], 96.9%; in test [12], 109%.

As for `CCNC(=O)c1noc(-c2cc(C(C)C)c(O)cc2O)c1-c1ccc(CN2CCOCC2)cc1` [Luminespib (AUY-922)], the “% Enzyme Activity (relative to DMSO controls)” value is recorded as 99.03% in test [1]; 95.73% in test [2]; 71.05% in test [3]; 82.81% in test [4]; 118.79% in test [5]; 86.46% in test [6]. For the same compound, the remaining activity at 10 µM in test [1] was 99.6%; in test [2], 95.8%; in [3], 73.3%; in test [4], 83.5%; in test [5], 123%; in test [6] it was 87.1%.

`CCNC(=O)c1noc(-c2cc(C(C)C)c(O)cc2O)c1-c1ccc(CN2CCOCC2)cc1` [Luminespib]: the “% Enzyme Activity (relative to DMSO controls)” value in test [7] amounted to 98.60%; in test [8], 98.84%; in test [9] it was 72.49%; in test [10], 99.02%; in test [11], 100.42%; in [12], 98.52%. Further, the remaining activity at 10 µM was 99.3% in test [7]; 99.4% in test [8]; 74.9% in [9]; 100% in test [10]; 101% in test [11]; 100% in [12].
